# Reference: patent US20260071252A1, “REVERSIBLE NANOPARTICLE AGGREGATES AND METHODS FOR DETECTING PROTEASES” (The Regents of the University of California, priority 2022, published 2026)
# “Also recorded” adds a separate entry of the source.
# Legend:
# [1] = molecular target: SARS-CoV-2 main protease (Mpro) (Severe acute respiratory syndrome coronavirus 2, UniProt P0DTD1)
# [2] = Peptide-enabled dissociation of RRK-induced AuNP aggregates; details: for particle dissociation: RRK-induced AuNP aggregates; for dissociation of aggregated AuNPs in diverse matrixes: 100% human saliva, plasma, urine, and seawater; for concentration that dissociates AuNP aggregates: Gly spacer length
# Description: After inducing AuNP aggregates by the RRK peptides, the A1 peptides with different concentrations from 7 to 300 μM were used to dissociate AuNP aggregates. The plasmonic resonance peak of AuNP aggregates blue shifted to 520 nm after particle dissociation. (FIG. 37b). The hydrodynamic diameter of AuNP aggregates (greater than (>) 1 μm) was reduced to 27±0.07 nm, and the surface charge of AuNPs was—13.4±1.03 mV because of surface modification with neutral charged A1 peptides (150 μM) and residual citrates (FIG. 37c). Particle dissociation induced color change from blue to red and a decrease in size as confirmed by time-dependent photographs, multi-laser wavelength nanoparticle tracking analysis (M-NTA), and TEM (FIG. 37d-e and FIG. 45A-C).
# To further study the role of each amino acid in the A1 peptide, we synthesized eight peptide sequences (from A2 to A8) for control experiments (FIG. 46A-H). Table 1 includes peptide sequence, net charge, critical dissociation concentrations (CDC), and design rationale. First, we replaced Cys residue with Gly (i.e., A2) to confirm the role of the anchoring group. […] Second, we hypothesized that negatively charged EE residues were required for particle dissociation because they provide electrostatic repulsions for citrate-coated AuNPs.
# Briefly, 10 μM of RRK peptide was used to aggregate 100 μL of AuNPs (conc approximately 3.6 nM). The particle aggregation rapidly occurred (less than 10 s), changing color from red to blue. Then the desired dissociation peptides were used to dissociate the AuNP aggregates. It is notable that these exemplary AuNPs are stabilized by citrate. Different surface ligands (for example, BSPP) and different sizes (40 or 60 nm) require different amounts of RRK peptide for particle aggregation.
# Briefly, RRK peptides (8-10 μM) was first used to trigger AuNP aggregation in distilled water. The sample was centrifuged at […] for 5 min to remove the supernatant. Then, the pellet was re-dispersed in 100% human saliva, plasma, urine, and seawater. After re-dispersion, the desired amounts of dissociation peptide were used to dissociate AuNPs aggregates in different matrixes. […] The experiment was performed with three replicates, and the microplate reader was used to measure spectral scanning from 300 to 900 nm before and after dissociation. The ratiometric signal (λ520/λ700) was referred as dissociation. The data was blanked to remove background signal.
# [3] = critical dissociation concentration, X (no dissociation)
substance,measurement,setting,value
Ace-CGGKKEEAVLQSGF-Am [Peptide A19],peptide concentration causing non-desired particle dissociation,[1],over 50 μM
SGFR,impact of released fragment on the dissociation process,[1],negligible impact on the dissociation process
Ace-EEPPC-Am [Peptide A7],CDC,[2]; [3],>300 µM
same,decreased to % of the dissociation capacity,[2]; relative to A1 peptide,30%
Ace-EEPPKKC-Am (Ac-EEPPKKC-NH2) [Peptide A5],dissociation capacity lower than A1 peptide,[2],50%
same,CDC,[2]; [3],>300 µM
Ace-EEKKPPG-Am (Ac-EEKKPPG-NH2) [Peptide A2],particle dissociation,[2],failed to dissociate AuNP aggregates
Ace-KKEEPPC-Am (Ac-KKEEPPC-NH2) [Peptide A6],particle dissociation,[2],particle dissociation was quenched
Ace-EEKKGGC-Am (Ac-EEKKGGC-NH2) [Peptide A11],dissociation of aggregated AuNPs in diverse matrixes,[2],successfully dissociated the aggregated AuNPs in diverse matrixes
same,concentration that dissociates AuNP aggregates,[2],16 µM
same,particle dissociation,[2],highest dissociation capacity compared to other spacers
same,CDC,"[2]; spacer comparison PP, AA, GG",16 µM
Ace-EEKKGGCAVLQ-Am (Ac-EEKKGGCAVLQ-NH2) [Peptide A17],particle dissociation,[2],failed to dissociate AuNP aggregates; also recorded: decreased the dissociation capacity
Ace-KEEKKPPC-Am (Ac-KEEKKPPC-NH2) [Peptide A4],particle dissociation,[2],no particle dissociations
Ace-EEKKGGGGGGC-Am (Ac-EEKKGGGGGGC-NH2) [Peptide A13],dissociation capacity lower than the A12 peptides,[2]; same peptide concentration (30 μM),25%
Ace-CGGKKEEAVLQ-Am [Peptide A15],particle dissociation,[2],higher dissociation capacity than the A14 peptide; also recorded: dissociated AuNP aggregates
Ace-EEKKAAC-Am [Peptide A10],CDC,"[2]; spacer comparison PP, AA, GG",150 µM
Ace-EEKKGGGGC-Am (Ac-EEKKGGGGC-NH2) [Peptide A12],dissociation of aggregated AuNPs in diverse matrixes,[2],successfully dissociated the aggregated AuNPs in diverse matrixes
same,concentration that dissociates AuNP aggregates,[2],16 µM
NH2-EEKKPPC-Am (H-EEKKPPC-NH2) [Peptide A3],particle dissociation,[2],no particle dissociations
